One assay has as its target JAK2 (Homo sapiens, UniProt O60674). The assay is described as follows: JAK2 Inhibition Assay. The format is biochemical. The conditions noted are these: JAK-2 enzyme, 15 μM poly(Glu)4Tyr, 12 μM ATP. The method, then: (§1) Compounds were screened for their ability to inhibit JAK3 using the assay shown below. Reactions were carried out in a kinase buffer containing 100 mM HEPES (pH 7.4), 1 mM DTT, 10 mM MgCl2, 25 mM NaCl, and 0.01% BSA. Substrate concentrations in the assay were 5 μM ATP (200 uCi/μmole ATP) and 1 μM poly(Glu)4Tyr. Reactions were carried out 25° C. and 1 nM JAK3.
(§2) To each well of a 96 well polycarbonate plate was added 1.5 μl of a candidate JAK3 inhibitor along with 50 μl of kinase buffer containing 2 μM poly(Glu)4Tyr and 10 μM ATP. This was then mixed and 50 μl of kinase buffer containing 2 nM JAK3 enzyme was added to start the reaction. After 20 minutes at room temperature (25° C.), the reaction was stopped with 50 μl of 20% trichloroacetic acid (TCA) that also contained 0.4 mM ATP. The entire contents of each well were then transferred to a 96 well glass fiber filter plate using a TomTek Cell Harvester. After washing, 60 μl of scintillation fluid was added and ^33P incorporation detected on a Perkin Elmer TopCount.
The assays were as described above in Example 36 except that JAK-2 enzyme was used, the final poly(Glu)4Tyr concentration was 15 μM, and final ATP concentration was 12 μM.

The next assay concerns the target T1, JAK3 (Homo sapiens, UniProt P52333).
T1 sequence (P52333 1-1124): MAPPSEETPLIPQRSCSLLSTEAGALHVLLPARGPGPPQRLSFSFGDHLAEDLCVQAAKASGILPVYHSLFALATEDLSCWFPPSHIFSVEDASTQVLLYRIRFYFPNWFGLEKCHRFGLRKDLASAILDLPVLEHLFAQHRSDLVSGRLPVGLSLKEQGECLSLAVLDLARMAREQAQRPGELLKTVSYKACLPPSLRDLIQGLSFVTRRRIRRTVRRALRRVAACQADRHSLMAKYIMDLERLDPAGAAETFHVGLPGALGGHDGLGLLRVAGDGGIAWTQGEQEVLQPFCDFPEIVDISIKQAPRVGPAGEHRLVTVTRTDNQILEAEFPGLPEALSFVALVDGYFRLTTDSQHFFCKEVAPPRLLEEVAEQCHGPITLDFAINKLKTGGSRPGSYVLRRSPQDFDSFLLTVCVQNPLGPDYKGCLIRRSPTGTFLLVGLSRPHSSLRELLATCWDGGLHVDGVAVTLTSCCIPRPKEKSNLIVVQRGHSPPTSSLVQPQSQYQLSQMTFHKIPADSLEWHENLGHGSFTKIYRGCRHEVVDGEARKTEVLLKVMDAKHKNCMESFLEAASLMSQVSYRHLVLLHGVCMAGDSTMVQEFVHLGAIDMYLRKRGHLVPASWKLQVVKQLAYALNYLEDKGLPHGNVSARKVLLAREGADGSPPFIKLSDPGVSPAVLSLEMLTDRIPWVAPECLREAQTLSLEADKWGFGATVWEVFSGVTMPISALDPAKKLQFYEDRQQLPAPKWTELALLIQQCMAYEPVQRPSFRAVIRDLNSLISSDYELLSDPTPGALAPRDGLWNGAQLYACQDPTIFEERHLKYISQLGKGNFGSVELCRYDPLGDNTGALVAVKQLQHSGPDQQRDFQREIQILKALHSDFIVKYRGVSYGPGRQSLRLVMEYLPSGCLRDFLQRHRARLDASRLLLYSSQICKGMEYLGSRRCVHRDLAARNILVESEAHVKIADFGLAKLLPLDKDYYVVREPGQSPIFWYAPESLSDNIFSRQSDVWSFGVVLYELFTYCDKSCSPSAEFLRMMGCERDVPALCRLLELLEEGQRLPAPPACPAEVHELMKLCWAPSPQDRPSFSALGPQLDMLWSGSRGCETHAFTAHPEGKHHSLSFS
The experiment in a line: JAK3 Inhibition Assay. The format is biochemical. The conditions noted are these: 1 nM JAK3, 1 μM poly(Glu)4Tyr, 5 μM ATP, 25° C.; read-out: enzyme inhibition data (Ki) JAK3. The method, then:
as §1, §2

JAK2, sequence (O60674 whole entry): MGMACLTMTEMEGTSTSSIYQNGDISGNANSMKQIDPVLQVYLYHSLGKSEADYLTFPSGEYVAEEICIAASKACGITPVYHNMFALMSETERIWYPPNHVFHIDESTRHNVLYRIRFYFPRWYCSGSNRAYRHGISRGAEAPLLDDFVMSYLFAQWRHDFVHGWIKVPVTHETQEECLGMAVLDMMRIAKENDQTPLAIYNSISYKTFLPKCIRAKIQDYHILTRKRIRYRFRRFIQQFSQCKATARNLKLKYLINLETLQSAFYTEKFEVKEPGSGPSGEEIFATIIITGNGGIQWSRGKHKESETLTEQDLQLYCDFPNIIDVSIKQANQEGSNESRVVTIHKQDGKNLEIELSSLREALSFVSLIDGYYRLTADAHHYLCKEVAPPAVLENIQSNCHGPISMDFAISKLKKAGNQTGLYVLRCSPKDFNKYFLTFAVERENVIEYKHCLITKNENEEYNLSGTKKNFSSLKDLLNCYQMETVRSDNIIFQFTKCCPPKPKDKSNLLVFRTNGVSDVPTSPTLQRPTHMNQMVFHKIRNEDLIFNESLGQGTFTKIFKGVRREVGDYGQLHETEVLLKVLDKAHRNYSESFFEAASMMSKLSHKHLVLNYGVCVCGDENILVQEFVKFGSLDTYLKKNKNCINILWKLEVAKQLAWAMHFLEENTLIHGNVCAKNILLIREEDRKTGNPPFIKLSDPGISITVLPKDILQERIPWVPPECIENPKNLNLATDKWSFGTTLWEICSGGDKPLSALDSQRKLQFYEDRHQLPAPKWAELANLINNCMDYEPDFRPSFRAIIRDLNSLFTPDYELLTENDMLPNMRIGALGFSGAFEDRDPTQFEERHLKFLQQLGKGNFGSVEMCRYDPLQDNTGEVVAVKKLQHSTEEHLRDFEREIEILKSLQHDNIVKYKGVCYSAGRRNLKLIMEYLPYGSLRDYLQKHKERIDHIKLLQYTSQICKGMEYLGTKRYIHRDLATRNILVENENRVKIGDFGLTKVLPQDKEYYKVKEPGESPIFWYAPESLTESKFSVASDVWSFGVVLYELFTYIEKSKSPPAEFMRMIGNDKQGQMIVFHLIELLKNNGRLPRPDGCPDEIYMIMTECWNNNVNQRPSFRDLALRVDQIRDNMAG

Regarding `C[C@H](Nc1nc(-c2c[nH]c3ncncc23)cc(N2CCOCC2)n1)C(=O)NCC(F)(F)F` [Compound 35], the Ki is above 5000 nM on JAK2 and 500 to 5000 nM at JAK3.

Turning to `CCC(CC)(Nc1ccnc(-c2c[nH]c3ncncc23)n1)C(=O)NCC(F)(F)F` [Compound 90], the inhibition constant Ki at JAK2 and at JAK3 was below 500 nM each time.

For `CC[C@@H](C(=O)NCC(F)(F)F)n1cnc2cnc(-c3c[nH]c4ncncc34)nc21` [Compound 113], the Ki at JAK2 and at JAK3 was below 500 nM each time.

Turning to `CC(C)[C@@](C)(Nc1ccnc(-c2c[nH]c3ncncc23)n1)C(=O)NCC(F)(F)F` [Compound 87], the Ki on JAK2 and at JAK3 was below 500 nM in each case.

Consider `O=C(NCC(F)(F)F)[C@H]1CCCN1c1ccnc(-c2c[nH]c3ncncc23)n1` [Compound 72], for which the Ki on JAK2 and on JAK3 was below 500 nM in each case.

For `O=C(NCC(F)(F)F)[C@@H]1CCCN1c1nc(-c2c[nH]c3ncncc23)ncc1F` [Compound 26], the figures for the Ki on JAK2 and on JAK3 were above 5000 nM and 500 to 5000 nM, respectively.

As to `OC[C@H]1CCCN1c1nc(-c2c[nH]c3ncncc23)ncc1F` [Compound 22, ((R)-1-(5-fluoro-2-(7H-pyrrolo[2,3-d]pyrimidin-5-yl)pyrimidin-4-yl)pyrrolidin-2-yl)methanol], the Ki at JAK2 and on JAK3 was 500 to 5000 nM each time.

As for `O=C(NCC(F)(F)F)[C@@H]1CCN1c1cnc(-c2c[nH]c3ncncc23)nc1` [Compound 55], the Ki at JAK2 and on JAK3 was 500 to 5000 nM in each case.

On to `C[C@H](Nc1cc(-c2nnn[nH]2)cc(-c2c[nH]c3ncncc23)n1)C(=O)NCC(F)(F)F` [Compound 20, (S)-2-(6-(7H-pyrrolo[2,3-d]pyrimidin-5-yl)-4-(1H-tetrazol-5-yl)pyridin-2-ylamino)-N-(2,2,2-trifluoroethyl)propanamide], for which the Ki was 500 to 5000 nM at JAK2 and below 500 nM on JAK3.

Regarding `CC[C@](C)(Nc1nc(-c2c[nH]c3ncncc23)ncc1F)C(=O)NCC(F)(F)F` [Compound 77], the Ki was 500 to 5000 nM on JAK2 and below 500 nM on JAK3.

Regarding `CCNC(=O)C(CC(F)(F)F)Nc1nc(-c2c[nH]c3ncncc23)ncc1F` (stereo not drawn) [Compound 44, 2-(5-fluoro-2-(7H-pyrrolo[2,3-d]pyrimidin-5-yl)pyrimidin-4-ylamino)-N-ethyl-4,4,4-trifluorobutanamide], the Ki on JAK2 and at JAK3 was 500 to 5000 nM each time.

As to `C[C@H](Nc1ncnc(-c2c[nH]c3ncncc23)n1)C(=O)NCC(F)(F)F` [Compound 79, (S)-2-(4-(7H-pyrrolo[2,3-d]pyrimidin-5-yl)-1,3,5-triazin-2-ylamino)-N-(2,2,2-trifluoroethyl)propanamide], the Ki at JAK2 is 500 to 5000 nM; on JAK3, below 500 nM.

Consider `C[C@H](Nc1cccc(-c2c[nH]c3ncncc23)n1)C(=O)NCC(F)(F)F` [Compound 4, (S)-2-(6-(7H-pyrrolo[2,3-d]pyrimidin-5-yl)pyridin-2-ylamino)-N-(2,2,2-trifluoroethyl)propanamide], for which the Ki at JAK2 and on JAK3 was below 500 nM each time.

Consider `CC[C@](C)(Nc1ccnc(-c2c[nH]c3ncncc23)n1)C(=O)NCC(F)(F)F` [Compound 88], for which the Ki on JAK2 and on JAK3 was below 500 nM throughout.

For the molecule `CCC(CC)(Nc1nc(-c2c[nH]c3ncncc23)ncc1F)C(=O)NCC(F)(F)F` [Compound 89], the Ki on JAK2 and on JAK3 was below 500 nM in each case.

Turning to `CN(c1ccnc(-c2c[nH]c3ncncc23)n1)C(C(=O)NCC(F)(F)F)c1ccccc1` (stereo not drawn) [Compound 97], the Ki at JAK2 is 500 to 5000 nM; on JAK3, below 500 nM.

`CC(C)(C)OC(=O)N1CC=C(c2cccc(-c3c[nH]c4ncncc34)n2)CC1` [Compound 28, 6-(7H-Pyrrolo[2,3-d]pyrimidin-5-yl)-3′,6′-dihydro-2′H-[2,4′]bipyridinyl-1′-carboxylic acid tert-butyl ester]: the Ki at JAK2 and on JAK3 was 500 to 5000 nM each time.

Take `CNC(=O)C(CC(F)(F)F)Nc1nc(-c2c[nH]c3ncncc23)ncc1F` (stereo not drawn) [Compound 43, 2-(5-fluoro-2-(7H-pyrrolo[2,3-d]pyrimidin-5-yl)pyrimidin-4-ylamino)-4,4,4-trifluoro-N-methylbutanamide]: the Ki at JAK2 and on JAK3 was 500 to 5000 nM each time.

On to `C[C@@H](c1ccccc1)N(C)c1ccnc(-c2c[nH]c3ncncc23)n1` [Compound 86], for which the results for the Ki at JAK2 and on JAK3 were 500 to 5000 nM and below 500 nM, respectively.

Turning to `CC1(C(=O)NCC(F)(F)F)CCCN1c1nc(-c2c[nH]c3ncncc23)ncc1F` (stereo not drawn) [Compound 102], the Ki on JAK2 and at JAK3 was below 500 nM throughout.

With `CC[C@@H](Nc1ccnc(-c2c[nH]c3ncncc23)n1)C(=O)NCC(F)(F)F` [Compound 69], the Ki on JAK2 and at JAK3 was below 500 nM each time.

For the molecule `O=C(Cn1ccc2cnc(-c3c[nH]c4ncncc34)nc21)NCC(F)(F)F` [Compound 109], the Ki at JAK2 and on JAK3 was below 500 nM throughout.

With `CC[C@@](C)(Nc1nc(-c2c[nH]c3ncncc23)ncc1F)C(=O)NCC(F)(F)F` [Compound 81], the Ki at JAK2 and at JAK3 was below 500 nM in each case.

For `O=C(NCC(F)(F)F)C1(Nc2ccnc(-c3c[nH]c4ncncc34)n2)CCC1` [Compound 64], the Ki at JAK2 and at JAK3 was below 500 nM each time.

For `CC(=O)N1[C@H](C)CN(c2cccc(-c3c[nH]c4ncncc34)n2)C[C@@H]1C` [Compound 1, 1-((2S,6R)-4-(6-(7H-pyrrolo[2,3-d]pyrimidin-5-yl)pyridin-2-yl)-2,6-dimethylpiperazin-1-yl)ethanone], the Ki at JAK2 and on JAK3 was below 500 nM each time.

In the case of `C[C@@H](Nc1ccnc(-c2c[nH]c3ncncc23)n1)C(=O)N(C)CC(F)(F)F` [Compound 103], the Ki on JAK2 is 500 to 5000 nM; at JAK3 it was below 500 nM.

On to `O=C(NCC(F)(F)F)C1(Nc2nc(-c3c[nH]c4ncncc34)ncc2F)CCCCC1` [Compound 62], for which the Ki on JAK2 and on JAK3 was below 500 nM in each case.

As for `O=C(CCNc1ccnc(-c2c[nH]c3ncncc23)n1)NCC(F)(F)F` [Compound 82], the Ki on JAK2 and on JAK3 was below 500 nM in each case.

Turning to `CC[C@H](Nc1nc(-c2c[nH]c3ncncc23)ncc1F)C(=O)NCC(F)(F)F` [Compound 41, (S)-2-(5-fluoro-2-(7H-pyrrolo[2,3-d]pyrimidin-5-yl)pyrimidin-4-ylamino)-N-(2,2,2-trifluoroethyl)butanamide], the figures for the Ki at JAK2 and at JAK3 were 500 to 5000 nM and below 500 nM, respectively.

As to `C[C@H](Nc1cc(C(=O)N2CCC(O)CC2)nc(-c2c[nH]c3ncncc23)n1)C(=O)NCC(F)(F)F` [Compound 13], the Ki at JAK2 and on JAK3 was 500 to 5000 nM in each case.

`O=C(NCC(F)(F)F)[C@H]1C[C@H](O)CN1c1nc(-c2c[nH]c3ncncc23)ncc1F` [Compound 93]: the figures for the Ki at JAK2 and at JAK3 were 500 to 5000 nM and below 500 nM, respectively.

Regarding `CC(C)[C@H](C(=O)NCC(F)(F)F)N(C)c1nc(-c2c[nH]c3ncncc23)ncc1F` [Compound 74], the Ki at JAK2 and on JAK3 was below 500 nM throughout.

For the molecule `C[C@H](Nc1cc(C(=O)N2CCOCC2)nc(-c2c[nH]c3ncncc23)n1)C(=O)NCC(F)(F)F` [Compound 12], the Ki at JAK2 is 500 to 5000 nM; on JAK3, below 500 nM.
